Article PMC5663395, “Chemical Validation of Methionyl-tRNA Synthetase as a Druggable Target in Leishmania donovani” (ACS Infectious Diseases, 2017)
Where “and” joins values, the source holds several entries; their conditions need not be identical. Identical values can stand only once. Like-named read-outs stand apart in the source and are kept apart here.

Key:
[1] = tested on: protein synthesis in human HeLa cell extract; test: HeLa in vitro translation (GFP expression in cell extract); format: biochemical; conditions: 100 μM
Protocol: page 27: When test compounds were to be screened, the compound of interest (solubilised in 100% DMSO) was dispensed into assay plates using an Echo® 550 (Labcyte) before L. tarentolae extract and eGFP template DNA were added to assay wells as described above. The reaction was run at room temperature for 120 min before eGFP fluorescence intensity was measured. IC50 curve fitting was undertaken in GraFit version 6.0 (Erithacus Software) using a four-parameter logistic dose-response curve (equation 6), with s the slope. […] GFP expression was monitored over time using a BMG PheraStar plate reader (Excitation 485 nm; Emission 520 nm). When testing DDD806905 and the positive control compound cycloheximide, compounds (solubilised in 100% DMSO) were dispensed into assay plates using an Echo® 550 (Labcyte) before HeLa extract, accessory proteins, reaction mix and GFP template DNA were added to assay wells and GFP expression monitored as described above. Mitochondrial protein synthesis assay The effect of DDD806905 on mitochondrial protein synthesis was determined by BioDuro using the MitoBiogenesisTM In-Cell ELISA Kit (Abcam). […] In the assay the levels of SDH-A and COX-1 are measured in H9C2 cells. These are normalised to DMSO treated cells (vehicle) and then the ratio of normalised SDH-A over COX-1 is calculated. […]

[2] = tested on: protein synthesis in Leishmania tarentolae cell extract; test: Leishmania tarentolae in vitro translation (eGFP expression in cell extract); format: biochemical; conditions: L. tarentolae extract, read-out: EC50 inhibition of eGFP protein synthesis
Protocol: Crystals of TbMetRS:Met were obtained by incubating TbMetRS with 10 mM methionine and 1 mM TCEP before crystallisation by sitting drop vapour diffusion against a reservoir solution containing 2.0-2.3 M Ammonium Sulphate, 0.2 M NaCl, 0.1 M Na Cacodylate pH 6.0-6.6. Single crystals grew after 3-4 days incubation at 18 °C. To obtain ternary TbMetRS:Met:Ligand complexes, TbMetRS:Met crystals were soaked for 10-30 seconds in a 10 μl drop consisting of 1 μl of ligand (20 mM in 20% DMSO), 4 μl reservoir solution and 5 μl glycerol. Crystals were flash frozen immediately in liquid nitrogen in preparation for data collection.
Diffraction data were measured at Diamond Light Source beamline I02. […]
Protein translation in a Leishmania cell extract was studied using a commercially available cell-free protein expression kit (Jena Bioscience). Reactions were carried out in black 384-well, small-volume plates (Greiner) in 10 µl reaction volumes containing 7 µl L. tarentolae cell extract, 1 µl eGFP DNA template and 2 µl nuclease free water (‘no DNA’ wells were included as negative controls). eGFP expression was monitored over time using a BMG PheraStar plate reader (Excitation 485 nm; […]
The effect of DDD806905 on mitochondrial protein synthesis was determined by BioDuro using the MitoBiogenesisTM In-Cell ELISA Kit (Abcam). […] In the assay the levels of SDH-A and COX-1 are measured in H9C2 cells. […]

[3] = tested on: Leishmania donovani liver parasite burden; test: Mouse visceral leishmaniasis efficacy model; conditions: 50 mg/kg oral twice daily for 10 days, 50 mg/kg

Cl.Cl.O=c1nc(NCCCNCc2cc3c(Cl)cc(Cl)cc3[nH]2)[nH]c2ccccc12 [DDD806905, 2-((3-(((4,6-dichloro-1H-indol-2-yl)methyl)amino)propyl)amino)quinazolin-4(1H)-one dihydrochloride]
inhibition of in vitro translation in HeLa cell extract [1]: no inhibition
EC50 ([2]; additional 1.5 mM methionine): 12 µM
EC50 ([2]; no additional methionine): 2.2 µM
reduction (knock-down) of liver parasite burden (LDU) vs vehicle [3]: 19% and 19.4%
